{"source": "patent US8524744B2", "about": "“Arylamine ketones, their preparation methods, the pharmaceutical composition containing them and their use” (Institute of Mataria Medica, Chinese Academy of Medical …, priority 2004, dated 2013)", "key": {"[1]": {"tested_on": "polymorphonuclear leucocytes from rat pleural cavity", "test": "release of β-glucuronidase by polymorphonuclear leucocytes from rat pleural cavity in vitro (PAF as irritant)", "assay_type": "cell-based", "how_it_was_run": "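Carrageenan-elicited pleural PMNs from Wistar rats (2.5×10^6 cells/ml, Dulbecco's buffer) were incubated with compound 15 min at 37° C, then cytochalasin B 5 min, then PAF 5 min. β-Glucuronidase in supernatant was assayed with phenolphthalein-glucuronic acid, 18 h at 37° C, OD 550 nm after NaOH.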"}, "[2]": {"tested_on": "IL-1β in serum", "test": "IL-1β in serum of rat with arthritis induced by type II collagen (ELISA)", "assay_type": "in vivo", "conditions": "Dose 100 mg · kg^−1 × 13 d, orally", "description": "0.1 ml of type II H collagen (2 mg·ml^−1) was intracutaneously injected into the hind foot of Wistar rat (male, 100±10 g) (d0). Seven days later 0.1 ml of type II collagen was intracutaneously injected into the root of tail. […] […] The perimeter of the ankle joint of two hind feet, weight of body was measured and the systemic inflammation (including the toes of front and hind feet, ears and tails) was judged by scoring every 3 days. At 41th day 40 μl of 0.2% type II collagen was intracutaneously injected into the right ear. Twenty-four hr later the edema level was evaluated by weighing the ponderance of ear piece (diameter: 8 mm). At 42th day the blood was collected by decapitating. The serum was separated by centrifugating. The contents of antibody for anti-type II collagen, cytokine TNF-α, IL-1β in serum were determined by ELISA kit."}, "[3]": {"tested_on": "mouse ear edema induced by croton oil", "test": "mouse ear edema induced by croton oil", "assay_type": "in vivo", "conditions": "orally, 50 mg·kg^−1, Kunming mice", "description": "Kuming mice (male, 18-22 g) were randomly divided into two groups (treatment and control) with 10 animals for each group. The animals were orally administrated with compounds or solvent, respectively. 1 hr later, 50 μl of 2% croton oil was smeared on the two sides of mouse left ear. After 4 hr the mice were sacrificed by cervical vertebra displacement. The two ears were cut off and the central sections were excised using a punch with a diameter of 8 mm and weighed. Edema was quantified as the weight difference between the two sections."}, "[4]": {"tested_on": "cutaneous vascular permeability in mice induced by PAF", "test": "increase of cutaneous vascular permeability in mice induced by PAF", "assay_type": "in vivo, mouse", "conditions": "orally, 50 mg·kg^−1, Kunming mice", "description": "Kunming mice (male, 18-22 g) were randomly divided into two groups (treatment and control) with 10 animals for each group. The animals were orally administrated with the compounds or solvent, respectively. 1 hr later, 0.25 ml of 1% evans blue dye was injected into the tail vein. After 10 min, 0.1 ml of PAF (1×10^−8 mol·L^−1) was intracutaneously injected into the dorsal skin shaved. 1 hr later, the animals were sacrificed by cervical vertebra displacement. The skin with blue spot was cut off. The evans blue dye was extracted by 0.8 ml of mixed solution of acetone and normal saline (7:3). The supernatant was transferred into the 96-well plate. The optical density was measured at 620 nm."}, "[5]": {"tested_on": "production of TNF-α by macrophages from mouse peritoneal cavity", "test": "production of TNF-α by macrophages from mouse peritoneal cavity (LPS, L929 bioassay)", "assay_type": "cell-based", "conditions": "Macrophage, LPS 10 μg·ml^−1, 24 hr, read-out: IC50, inhibition of the production of TNF-α", "description": "The macrophages from mouse peritoneal cavity were prepared as described before. 500 μl of cells were inoculated in 48-well plate which was incubated with 5% CO2 at 37° C. for 2.5 hr. The compounds and LPS (final concentration: 10 μg·ml^−1) were added into each well of the plate. After incubating for 24 hr the supernatant was collected. The content of TNF-α was determined by following method. 100 μl of L929 cells (2×10^5cells·ml^−1) with 100 μl of RPMI-1640 or supernatant collected above were inoculated into 96-well plate which incubated under 5% CO2 at 37° C. for 20 hr. The supernatant was discarded. 200 μl of 0.5% crystal violet was added into each well. 10 min later crystal violet outside of the cells was rinsed using normal saline. The cells were dried under room temperature. 100 μl of 10% SDS was added into each well. After the cells were lysed completely the optical density was measured at 570 nm. The well of 1640 media was as the control, The content of TNF-a was evaluated by the percentage of L929 cells survival."}, "[6]": {"tested_on": "macrophages from mouse peritoneal cavity", "test": "chemotaxis of macrophages from mouse peritoneal cavity induced by PAF", "assay_type": "cell-based", "conditions": "Macrophage, 2 hr, read-out: IC50, inhibition of chemotaxis", "description": "4% of sodium mercaptoethanol was injected into C57BL/6 mouse peritoneal cavity to induce macrophages. The cells in peritoneal cavity were collected after injection for 3-4 days. 27 μl of irritant was added into the well at low part of the chemotaxis plate. The filter membrane was covered on the wells and the top part of the plate was assembled on the filter. 55 μl of cells suspension with various concentrations of the compounds or solvent was added into the well at top part of the plate. The plate was placed into incubater with 5% CO2 at 37° C. for 2 hr. The filter was taken out, stained by hematoxylin and dehydrated. The cells migrated into the other side of the filter was counted by microscope."}, "[7]": {"tested_on": "angiogenesis of the chronic granulomatous air pouch in mice", "test": "angiogenesis of the chronic granulomatous air pouch in mice", "assay_type": "in vivo, mouse", "conditions": "orally", "description": "3 ml of air was injected into the dorsal subcutaneous tissue. 24 hr later, 0.5 ml of 0.1% croton oil in Freund's complete adjuvant was injected into the air pouch. Meanwhile the compound or solvent was orally administrated everyday. At sixth day the mice were anaesthetized and kept at 40° C. for 10 min. 1 ml of 1% carmine red containing 5% gelatin was injected into the tail vein. The animal was kept at 0-4° C. for 2-3 hr. The air-pouch tissue was detached, dried in oven at 56° C. for 48 hr, weighed and cut to small pieces. 2 ml of digesting fluid was added into the tissue. The carmine red was solved by NaOH (5 mol·L^−1). The supernatant was isolated and filtered. The absorbance was measured at 540 nm. The content of carmine red was calculated according to the correct curve."}, "[8]": {"tested_on": "mouse paw swelling induced by carrageenan", "test": "mouse paw swelling induced by carrageenan", "assay_type": "in vivo", "conditions": "orally, 50 mg·kg^−1, Kunming mice", "description": "Kunming mice (male, 18-22 g) were randomly divided into two groups (treatment and control) with 10 animals for each group. The animals were orally administrated with compounds or solvent, respectively. 1 hr later, 50 μl of 1% carrageenan was intracutaneously injected into the sole of right posterior foot. After 4 hr the animals were sacrificed by displacing cervical vertebra. The two paws were cut off at ankle joint and weighed. The swelling was evaluated by the difference of the weights of two paws."}}, "note": "Structures can show the parent of a compound that is named as a salt.", "data": [{"smiles": "CCOC(=O)C1CCN(CCC(=O)/C=C/c2ccc(Cl)cc2)CC1", "note": "[Compound 3, 5-[(4-Ethoxycarbonyl)piperidyl]-1-(4-chlorophenyl)-1-penten-3-one hydrochloride]", "values": [{"measurement": "Inhibition (%) of β-glucuronidase release", "setting": "[1]; Dose 2 × 10^−6 mol · L^−1, Irritant 1 × 10^−7 mol · L^−1", "result": 142.96, "unit": "%"}, {"measurement": "IC50", "setting": "[1]; Leucocyte, rat polymorphonuclear leucocytes", "result": 0.226, "unit": "nM"}, {"measurement": "Inhibition (%) of production of IL-1β in serum", "setting": "[2]", "result": 45.7, "unit": "%"}, {"measurement": "Inhibition (%) of mouse ear edema", "setting": "[3]", "result": 33.52, "unit": "%"}, {"measurement": "Inhibition (%) of increase of cutaneous vascular permeability", "setting": "[4]", "result": 53.23, "unit": "%"}, {"measurement": "IC50", "setting": "[5]", "result": 34, "unit": "nM"}, {"measurement": "IC50", "setting": "[6]", "result": 0.477, "unit": "nM"}, {"measurement": "Inhibition (%) of angiogenesis (content of carmine red)", "setting": "[7]; Dose 12.5 mg · kg^−1 × 5 d", "result": 17.8, "unit": "%"}, {"measurement": "Inhibition (%) of angiogenesis (content of carmine red)", "setting": "[7]; Dose 25 mg · kg^−1 × 5 d", "result": 20.6, "unit": "%"}, {"measurement": "Inhibition (%) of angiogenesis (content of carmine red)", "setting": "[7]; Dose 50 mg · kg^−1 × 5 d", "result": 28.4, "unit": "%"}, {"measurement": "Inhibition (%) of mouse paw swelling", "setting": "[8]", "result": 32.52, "unit": "%"}]}]}
